Experimental data: US10167257B2, “Indole derivatives for use in medicine” (IOmet Pharma Ltd., priority 2014, dated 2019)

Experiments:
[1] = molecular target: T1, IDO (SKOV-3 cells) (Homo sapiens, UniProt P14902); assay: IDO cell-based assay (SKOV-3, IFNγ-induced), kynurenine production; details: SKOV-3 ovary adenocarcinoma cells, IFNγ 500 ng/ml, 500 μM L-Trp, 48 h, kynurenine by absorbance at 490 nm
T1 construct: This assay utilised cancer cells which expressed either TDO or IDO; host or cells: SKOV-3 ovary adenocarcinoma cells, IFNγ-induced
T1 sequence (P14902 whole entry): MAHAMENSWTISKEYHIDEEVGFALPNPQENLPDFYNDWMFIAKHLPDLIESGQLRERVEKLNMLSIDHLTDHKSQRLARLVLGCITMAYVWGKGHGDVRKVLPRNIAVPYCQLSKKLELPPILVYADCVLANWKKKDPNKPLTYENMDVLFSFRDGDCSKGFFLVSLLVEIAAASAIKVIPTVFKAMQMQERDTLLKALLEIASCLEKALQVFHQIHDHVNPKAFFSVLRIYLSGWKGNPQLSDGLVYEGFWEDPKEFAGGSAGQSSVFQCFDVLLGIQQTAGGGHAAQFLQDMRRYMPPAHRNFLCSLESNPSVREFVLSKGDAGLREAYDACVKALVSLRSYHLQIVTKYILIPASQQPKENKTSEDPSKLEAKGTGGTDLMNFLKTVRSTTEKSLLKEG
From the text: (§1) Two different types of assay were employed: 1. A TDO and IDO biochemical coupled assay which utilised recombinantly produced and purified TDO and IDO enzymes in combination with the enzyme formamidase. This coupled enzyme system allowed conversion of N-formylkynurenine produced by TDO or IDO activity to kynurenine which was then quantified by fluorescence following addition of Erhlich's Reagent. 2. A cell-based assay for detecting the effect of test compounds on kynurenine production in two different cancer cell types. This assay utilised cancer cells which expressed either TDO or IDO and as such was used as a means of testing compound activity at these two enzymes in a cell-based context. The protocols for these are set out below.
(§2) A172 human glioblastoma (ATCC) were grown in DMEM+2 mM L-glutamine medium supplemented with 10% foetal bovine serum and SKOV-3 ovary adenocarcinoma (ATCC) cells were grown in McCoys 5A+L-glutamax medium supplemented with 15% foetal bovine serum. On the day of assay, cells were detached using trypsin-EDTA (0.25% v/v), re-suspended in assay media (RPMI 1640 phenol red free+L-glutamine supplemented with 10% dialysed foetal bovine serum). A172 cells were seeded at 30K cells per well and SKOV-3 cells at 40K cells per well into 96-well plates containing test samples/vehicle control together with 500 μM L-Trp. Cells were then incubated for 48 h at 37° C., 5% CO2. In SK-OV-3 cells, IFNγ was also added at 500 ng/ml for the 48 h incubation in order to induce expression of IDO. Plates were centrifuged and the supernatant was removed and incubated for 5 min in the presence of 1% Erhlich's reagent. Kynurenine levels were then quantified by measuring absorbance at 490 nm.

[2] = molecular target: T2, TDO (A172 cells) (Homo sapiens, UniProt P48775); assay: TDO cell-based assay (A172), kynurenine production; details: A172 human glioblastoma cells, 500 μM L-Trp, 48 h, kynurenine by absorbance at 490 nm
T2 construct: This assay utilised cancer cells which expressed either TDO or IDO; host or cells: A172 human glioblastoma cells
T2 sequence (P48775 whole entry): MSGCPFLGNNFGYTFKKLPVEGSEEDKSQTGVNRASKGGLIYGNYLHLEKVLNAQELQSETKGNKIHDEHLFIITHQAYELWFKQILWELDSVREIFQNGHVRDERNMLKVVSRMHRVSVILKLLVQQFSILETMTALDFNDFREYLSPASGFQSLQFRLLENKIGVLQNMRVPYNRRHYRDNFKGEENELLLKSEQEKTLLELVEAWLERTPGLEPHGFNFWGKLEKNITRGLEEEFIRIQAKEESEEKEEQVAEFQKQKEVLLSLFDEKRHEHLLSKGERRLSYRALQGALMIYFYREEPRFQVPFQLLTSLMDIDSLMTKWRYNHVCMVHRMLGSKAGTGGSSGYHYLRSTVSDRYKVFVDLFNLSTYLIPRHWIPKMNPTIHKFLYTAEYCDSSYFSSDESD
From the text: as §1, §2

SMILES	IDO cellular assay (SKOV3) pIC50 [1]	TDO cellular assay (A172) pIC50 [2]
CCn1cc(C2(NC(=O)c3cc4cc(Cl)ccc4[nH]3)CC2)cn1 [Compound 214]	+++ (+++ = pIC50 ≥5.50)	− (− = pIC50 <4.50)
COc1ccc2[nH]c(C(=O)NC3(c4cnn(C)c4)CC3)cc2c1 [Compound 176]	+++ (+++ = pIC50 ≥5.50)	− (− = pIC50 <4.50)
C[C@@H](NC(=O)c1cc2cc(Cl)cnc2[nH]1)c1ccccc1 [Compound 163]	+ (+ = pIC50 4.50-<5.00)	− (− = pIC50 <4.50)
O=C(NC1(c2ccccc2)CCCC1)c1cc2cc(Cl)ccc2[nH]1 [Compound 230]	+++ (+++ = pIC50 ≥5.50)	− (− = pIC50 <4.50)
CC(C)C(NC(=O)c1cc2cc(Cl)ccc2[nH]1)c1cnn(C)c1 (stereo not drawn) [Compound 259]	+++ (+++ = pIC50 ≥5.50)	− (− = pIC50 <4.50)
CC(NC(=O)c1cc2cc(Cl)ccc2[nH]1)c1ncc[nH]1 (stereo not drawn) [Compound 96]	+ (+ = pIC50 4.50-<5.00)	− (− = pIC50 <4.50)
COc1ccc2cc(C(=O)NC3(c4ccccc4)COC3)[nH]c2c1 [Compound 169]	++ (++ = pIC50 5.00-<5.50)	− (− = pIC50 <4.50)
Cc1cc(C2(NC(=O)c3cc4cc(Cl)ccc4[nH]3)CC2)no1 [Compound 217]	+++ (+++ = pIC50 ≥5.50)	− (− = pIC50 <4.50)
Cn1cc(C2(NC(=O)c3cc4cc(OC(F)(F)F)ccc4[nH]3)CC2)cn1 [Compound 275]	+++ (+++ = pIC50 ≥5.50)	− (− = pIC50 <4.50)
Cc1cc(C)c2cc(C(=O)NCc3ccc(C)n3C)[nH]c2c1 [Compound 20]	+ (+ = pIC50 4.50-<5.00)	− (− = pIC50 <4.50)
COc1ccc(C(NC(=O)c2cc3ccccc3[nH]2)C2CC2)cc1 (stereo not drawn) [Compound 18]	+++ (+++ = pIC50 ≥5.50)	− (− = pIC50 <4.50)
O=C(Nc1cccc2cnccc12)c1cc2ccc(F)cc2[nH]1 [Compound 2]	++ (++ = pIC50 5.00-<5.50)	− (− = pIC50 <4.50)
O=C(NC1(c2ccccc2)CC1)c1cc2ccc(O)cc2[nH]1 [Compound 172]	+ (+ = pIC50 4.50-<5.00)	− (− = pIC50 <4.50)
CC(NC(=O)c1cc2ccccc2[nH]1)c1ccc(C(F)(F)F)cc1 (stereo not drawn) [Compound 19]	+++ (+++ = pIC50 ≥5.50)	− (− = pIC50 <4.50)
CC(NC(=O)c1cc2cc(F)ccc2[nH]1)c1ccccc1 (stereo not drawn) [Compound 4]	++ (++ = pIC50 5.00-<5.50)	+ (+ = pIC50 4.50-<5.00)
COc1ccc(-n2cc(C(C)NC(=O)c3cc4cc(Cl)ccc4[nH]3)cn2)cc1 (stereo not drawn) [Compound 146]	+++ (+++ = pIC50 ≥5.50)	− (− = pIC50 <4.50)
C[C@@H](NC(=O)c1cc2cc(Cl)ccc2[nH]1)c1ccc(Cl)cc1 [Compound 72]	+++ (+++ = pIC50 ≥5.50)	− (− = pIC50 <4.50)
CC(CN(C)S(C)(=O)=O)NC(=O)c1cc2cc(Cl)ccc2[nH]1 (stereo not drawn) [Compound 154]	+ (+ = pIC50 4.50-<5.00)	− (− = pIC50 <4.50)
CS(=O)(=O)Nc1ccc2cc(C(=O)NC3(c4ccccc4)CC3)[nH]c2c1 [Compound 190]	+ (+ = pIC50 4.50-<5.00)	− (− = pIC50 <4.50)
C[C@@H](NC(=O)c1cc2ccc(F)cc2[nH]1)c1ccccc1 [Compound 44]	+++ (+++ = pIC50 ≥5.50)	+ (+ = pIC50 4.50-<5.00)

SMILES	IDO cellular assay (SKOV3) pIC50 [1]	TDO cellular assay (A172) pIC50 [2]
CC(NC(=O)c1cc2cc(Cl)ccc2[nH]1)c1cnn(-c2ccccc2)c1 (stereo not drawn) [Compound 124]	+++ (+++ = pIC50 ≥5.50)	− (− = pIC50 <4.50)
C[C@H](NC(=O)c1cc2cc(Cl)ccc2[nH]1)c1ccc(Cl)cc1 [Compound 75]	+++ (+++ = pIC50 ≥5.50)	− (− = pIC50 <4.50)
CC(C)C(NC(=O)c1cc2cc(F)ccc2[nH]1)c1cccs1 (stereo not drawn) [Compound 23]	+++ (+++ = pIC50 ≥5.50)	− (− = pIC50 <4.50)
Cc1nc(C(C)NC(=O)c2cc3cc(C#N)ccc3[nH]2)co1 (stereo not drawn) [Compound 222]	++ (++ = pIC50 5.00-<5.50)	− (− = pIC50 <4.50)
Cc1ccc2[nH]c(C(=O)NC(C)c3ccccc3)cc2c1 (stereo not drawn) [Compound 26]	+++ (+++ = pIC50 ≥5.50)	++ (++ = pIC50 5.00-<5.50)
Cn1cc(C2(NC(=O)c3cc4cc(O)ccc4[nH]3)CC2)cn1 [Compound 211]	+ (+ = pIC50 4.50-<5.00)	− (− = pIC50 <4.50)
O=C(NCc1cc2cc(F)ccc2[nH]1)c1ccccc1 [Compound 52]	+ (+ = pIC50 4.50-<5.00)	+ (+ = pIC50 4.50-<5.00)
C[C@@H](NC(=O)c1cc2ccc(Cl)cc2[nH]1)c1ccccc1 [Compound 47]	++ (++ = pIC50 5.00-<5.50)	++ (++ = pIC50 5.00-<5.50)
CC(NC(=O)c1cc2cc(Cl)ccc2[nH]1)c1cnoc1 (stereo not drawn) [Compound 97]	++ (++ = pIC50 5.00-<5.50)	+ (+ = pIC50 4.50-<5.00)
O=C(NCCc1nccs1)c1cc2cc(Cl)ccc2[nH]1 [Compound 110]	++ (++ = pIC50 5.00-<5.50)	− (− = pIC50 <4.50)
CC(NC(=O)c1cc2cc(Cl)ccc2[nH]1)C1CCOCC1 (stereo not drawn) [Compound 103]	+++ (+++ = pIC50 ≥5.50)	− (− = pIC50 <4.50)
C[C@@H](NC(=O)c1cc2c(F)c(Cl)ccc2[nH]1)c1ccccc1 [Compound 183]	+++ (+++ = pIC50 ≥5.50)	+ (+ = pIC50 4.50-<5.00)
O=C(NC1(c2ccccc2)CC1)c1cc2cc(Cl)ccc2[nH]1 [Compound 128]	+++ (+++ = pIC50 ≥5.50)	+ (+ = pIC50 4.50-<5.00)
Cn1cc(C2(NC(=O)c3cc4cc(OC(F)(F)F)ccc4[nH]3)CCC2)cn1 [Compound 269]	+++ (+++ = pIC50 ≥5.50)	− (− = pIC50 <4.50)
Cn1cc(C2(NC(=O)c3cc4cc(Cl)cc(F)c4[nH]3)CC2)cn1 [Compound 205]	+++ (+++ = pIC50 ≥5.50)	− (− = pIC50 <4.50)
CCC(NC(=O)c1cc2cc(Cl)ccc2[nH]1)c1cnn(C)c1 (stereo not drawn) [Compound 258]	+++ (+++ = pIC50 ≥5.50)	− (− = pIC50 <4.50)
CCOc1ccc2[nH]c(C(=O)NC(C)c3cnn(C)c3)cc2c1 (stereo not drawn) [Compound 272]	+++ (+++ = pIC50 ≥5.50)	− (− = pIC50 <4.50)
Cc1c(C(=O)N[C@@H](C)c2ccccc2)[nH]c2ccc(F)cc12 [Compound 60]	+ (+ = pIC50 4.50-<5.00)	+ (+ = pIC50 4.50-<5.00)
CC(NC(=O)c1cc2cc(Cl)cc(F)c2[nH]1)c1cnn(C)c1 (stereo not drawn) [Compound 202]	+++ (+++ = pIC50 ≥5.50)	− (− = pIC50 <4.50)
